Consider 19 compounds from patent US9150592B2, “Heterocyclic nuclear hormone receptor modulators” (AbbVie Inc., priority 2012, dated 2015).

Structures are written as SMILES.

For test [1], the system named is IL-6 in A549 cells stimulated with IL-1β. Briefly: A549 Cell Assay to Measure Inflammation Markers (inhibition of IL-1β-induced IL-6). Format: cell-based. To be noted: intrinsic activity, Emax class ranges; for Emax: Homo sapiens, A549, A549 Cell Assay to Measure Inflammation Markers. As for the experimental part:
A549 Cell Assay to Measure Inflammation Markers
Further dilution (1:250) of compound was made into assay medium and 50 μL/well diluted drug or DMSO/media control was applied to cells. After a 1 h pre-incubation in a temperature, CO2, and humidity controlled incubator, set to 37° C., 50 μL/well of 4 ng/mL IL-1β diluted in assay media, was applied to cultures. Assay plates, with a final volume of 200 μL/well and final concentrations of 0.1% DMSO and 1 ng/mL IL-1β were returned to incubator for a […] incubation period. Next, plates were spun at 183 g (1000 rpm in Beckman/Coulter Allegra 6KR centrifuge) for 10 min. Cell-free supernatant (150 μL/well) was collected and IL-6 was measured by MSD kit, following protocol of manufacturer, and using MSD SECTOR Imager 6000 instrument. […] Results were represented as IC50 and Emax values.

Test [2] deals with T1, Glucocorticoid Receptor (GR) (Homo sapiens, UniProt P04150).
T1 construct: purchased Invitrogen P2893
T1 sequence (P04150 1-777): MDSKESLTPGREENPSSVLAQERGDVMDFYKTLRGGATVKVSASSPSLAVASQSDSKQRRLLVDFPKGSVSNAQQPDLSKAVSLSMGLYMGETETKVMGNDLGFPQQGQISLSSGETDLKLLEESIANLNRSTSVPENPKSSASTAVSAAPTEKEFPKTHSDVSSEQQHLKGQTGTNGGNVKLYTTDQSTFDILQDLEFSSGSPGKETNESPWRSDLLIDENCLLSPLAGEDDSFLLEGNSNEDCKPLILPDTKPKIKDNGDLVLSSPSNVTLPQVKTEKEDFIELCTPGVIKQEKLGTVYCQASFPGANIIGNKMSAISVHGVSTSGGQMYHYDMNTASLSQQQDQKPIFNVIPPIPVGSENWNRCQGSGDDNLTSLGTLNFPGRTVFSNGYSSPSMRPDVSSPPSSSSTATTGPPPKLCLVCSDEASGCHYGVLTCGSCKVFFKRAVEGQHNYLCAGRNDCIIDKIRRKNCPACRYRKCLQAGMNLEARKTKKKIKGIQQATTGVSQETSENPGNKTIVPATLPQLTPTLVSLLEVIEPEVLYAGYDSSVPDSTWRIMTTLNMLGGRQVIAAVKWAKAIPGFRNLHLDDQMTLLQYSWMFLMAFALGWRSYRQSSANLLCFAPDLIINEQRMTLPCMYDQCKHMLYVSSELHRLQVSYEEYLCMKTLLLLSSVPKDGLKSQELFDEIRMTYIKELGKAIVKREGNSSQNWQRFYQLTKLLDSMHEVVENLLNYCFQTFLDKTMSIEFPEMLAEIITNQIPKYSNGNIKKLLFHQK
Briefly: GR Fluorescence Polarization Assay (PolarScreen Glucocorticoid Receptor Competitor Assay, Red). To be noted: IC50 class ranges, read-out: GR binding. The procedure, abridged:
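Competitive fluorescence-polarization assay using a red fluorescent glucocorticoid tracer with human GR in kit buffer. Compounds serially diluted 1:4 in DMSO, incubated with tracer and GR overnight at 4° C, then polarization read.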
On the technique in general: Fluorescence polarisation rises when a labelled molecule tumbles more slowly, as on binding a larger partner.

For `Cc1cc(Cl)ccc1[C@H]1S[C@@H](CCO)CNc2c1c(-c1ccccn1)nn2C` (single isomer, unassigned) [M.10, 2-(4-(4-chloro-2-methylphenyl)-1-methyl-3-(pyridin-2-yl)-4,6,7,8-tetrahydro-1H-pyrazolo[3,4-e][1,4]thiazepin-6-yl)ethanol], the Emax (usually the size of the effect at its maximum, as opposed to the concentration needed) in test [1] is under 50%. The IC50 in test [2] fell in the range of 1000 to 10000 nM.

As to `Cc1cc(Br)ccc1[C@@H]1SC[C@@H](CO)Nc2c1c(-c1ccccn1)nn2C` (racemic) [K.10, rac-((4R,7S)-4-(4-bromo-2-methylphenyl)-1-methyl-3-(pyridin-2-yl)-4,6,7,8-tetrahydro-1H-pyrazolo[3,4-e][1,4]thiazepin-7-yl)methanol], the Emax in test [1] is over 60%. The IC50 in test [2] was under 100 nM.

As to `Cc1ncccc1NC(=O)c1cc(C2SCCNc3c2c(-c2ccccn2)nn3C)c(C)s1` (centres unmarked) [F.6], the Emax in test [1] was under 50%. Besides, the IC50 in test [2] is 1000 to 10000 nM.

`CC(C)c1nn(C)c2c1C(c1ccc(Cl)cc1Cl)SC(C)(C)CN2` (centres unmarked) [D.64] showed an Emax in test [1] of under 50%. Besides, the IC50 in test [2] fell in the range of 100 to 1000 nM.

Take `Cc1ncccc1NC(=O)c1ccc(C2SCCNc3c2c(-c2ccccn2)nn3C)cc1` (centres unmarked) [F.3]: the maximum response (Emax) in test [1] was under 50%. Further, the IC50 in test [2] was 1000 to 10000 nM.

`Cc1nn(C)c2c1C(c1ccc(Cl)cc1Cl)SC1(CCCC1)CN2` (centres unmarked) [D.65] yielded an Emax in test [1] of under 50%. Besides, the IC50 in test [2] was under 100 nM.

In turn, `Cc1cc(Br)ccc1C1SCCNc2c1c(-c1ccccn1)nn2C` (centres unmarked) returned an Emax in test [1] of over 50%. Also, in test [2], the IC50 is under 100 nM.

Consider `COc1ccc(C)c(C2SC(C)(C)CNc3c2c(C2CC2)nn3C)c1` (centres unmarked) [D.106], for which the maximum response (Emax) in test [1] is under 50%. Moreover, in test [2], the IC50 was under 100 nM.

In turn, `Cc1c(Br)cccc1C1SC(C)(C)CNc2c1c(C1CC1)nn2C` (centres unmarked) [D.69] registered a maximal response (Emax) in test [1] of under 50%. For the same compound, the IC50 in test [2] was in the range of 100 to 1000 nM.

`Cc1cc(-c2nn(C)c3c2C(c2ccc(Br)cc2C)SCCN3)on1` (centres unmarked) [D.29] returned a maximal response (Emax) in test [1] of under 50%. Besides, the IC50 in test [2] was under 100 nM.

In the case of `Cc1cc(Cl)ccc1C1SCCNc2c1c(-c1cc(Br)ccn1)nn2C` (centres unmarked) [D.19], the maximal effect (Emax) in test [1] is under 50%. Moreover, in test [2], the IC50 is under 100 nM.

Regarding `Cn1nc(-c2ccccc2)c2c1NCCSC2c1ccc(Cl)cc1Cl` (centres unmarked) [D.83], the Emax in test [1] is under 50%. For the same compound, the IC50 in test [2] is under 100 nM.

As for `COC(=O)c1ccc(C2SCCNc3c2c(-c2ccccn2)nn3C)c(Cl)c1` (centres unmarked) [E.1, methyl 3-chloro-4-[1-methyl-3-(2-pyridyl)-4,6,7,8-tetrahydropyrazolo[3,4-e][1,4]thiazepin-4-yl]benzoate], the Emax in test [1] was under 50%. Besides, the IC50 in test [2] was under 100 nM.

In test [1], `Cc1cc(Cl)ccc1C1SCCNc2c1c(-c1ccn[nH]1)nn2C` (centres unmarked) displayed an Emax of under 50%. Also, the IC50 in test [2] lay in the range of 100 to 1000 nM.

For the compound `C=Cc1cc(Cl)ccc1C1SCCNc2c1c(-c1ccccn1)nn2C` (centres unmarked), the maximal effect (Emax) in test [1] is over 60%. In test [2], the IC50 is under 100 nM.

On to `Cn1nc(C2CC2)c2c1NCC(C)(C)SC2c1ccc(Cl)cc1C(F)(F)F` (centres unmarked) [D.48], for which the maximal effect (Emax) in test [1] is under 50%. For the same compound, in test [2], the IC50 was 100 to 1000 nM.

For the compound `Cc1ncccc1NC(=O)c1ccc(C2SC(C)(C)CNc3c2c(C)nn3C)c(Cl)c1` (single isomer, unassigned) [M.9, 3-chloro-N-(2-methylpyridin-3-yl)-4-(1,3,6,6-tetramethyl-4,6,7,8-tetrahydro-1H-pyrazolo[3,4-e][1,4]thiazepin-4-yl)benzamide], the “A549 Emax” value in test [1] (A549 Cell Assay to Measure Inflammation Markers) was “D (a compound with Emax<50%)”. Also, the IC50 in test [2] was 100 to 1000 nM.

Regarding `Cc1cc(C#CCO)ccc1[C@@H]1SC[C@H](C)Nc2c1c(-c1ccccn1)nn2C` (single isomer, unassigned) [M.71, 3-(4-(1,7-dimethyl-3-(pyridin-2-yl)-4,6,7,8-tetrahydro-1H-pyrazolo[3,4-e][1,4]thiazepin-4-yl)-3-methylphenyl)prop-2-yn-1-ol], in test [1], the maximum response (Emax) is under 50%. Besides, the IC50 in test [2] was under 100 nM.

Take `Cc1cc(Cl)ccc1C1SC(C)(C)CNc2c1c(C1CC1)nn2C` (centres unmarked) [D.45]: the maximal response (Emax) in test [1] was over 60%. The IC50 in test [2] is under 100 nM.
